Source: a melting point compilation (Tetko et al.)

Row | SMILES | melting point
1 | COc1cc2c(c(OC)c1OC)CCNCC2 | 60 to 62 °C
2 | O=C(CCl)c1ccc(O)cc1O | 108 to 110 °C
3 | CC(C)(C)c1ncc(C(=O)O)s1 | 204 to 206 °C
4 | CC(C)Oc1ccc([N+](=O)[O-])cc1CBr | 69 to 71 °C
5 | CCOC(=O)c1sc2ncnc(Cl)c2c1C | 113 to 115 °C
6 | CC(=NO)c1ccc(OCC(F)(F)F)cc1 | 127 to 129 °C
7 | O=c1[nH]cnc2c1CCCN2 | 258 to 260 °C
8 | Cc1ccc(C=CC(=O)O)o1 | 118 to 120 °C
9 | Cn1cnc(-c2ccc(N)cc2)n1 | 138 to 140 °C
10 | O=C(O)c1ccccc1NS(=O)(=O)c1ccc(Br)cc1 | 225 to 227 °C
11 | NC1CCCCC1Nc1cnccn1 (stereo unspecified) | 59 to 61 °C
12 | CCc1[nH]n(C)c(=N)c1-c1ccc2c(c1)OCO2 | 154 to 156 °C
13 | C#Cc1ccc(C(=O)O)nc1 | 181 to 183 °C
14 | O=[N+]([O-])c1cnc2c(c1)CCCC2 | 71 to 73 °C
15 | O=C(O)c1cc2ccccc2c(OCC2CC2)n1 | 177 to 179 °C
16 | Oc1ccccc1-c1nc(CCl)no1 | 76 to 78 °C
17 | O=C(O)c1cc(S(=O)(=O)N2CCOCC2)ccc1N1CCCCC1 | 179 to 181 °C
18 | Cc1nccc(CN)n1 | 8 to 10 °C
19 | CC(O)c1ccc(O)cc1 (stereo unspecified) | 131 to 133 °C
20 | Nc1cccc(Cn2nc3ccccn3c2=O)c1 | 127 to 129 °C
21 | O=C(O)C1CSc2ccccc21 (stereo unspecified) | 95 to 97 °C
22 | Cc1cc(C(=O)O)c(C)n1Cc1ccco1 | 170 to 172 °C
23 | O=C(O)c1c[nH]c(-c2cccc([N+](=O)[O-])c2)n1 | 184 to 186 °C
24 | COCCc1noc(-c2cc(Cl)ccc2N)n1 | 93 to 95 °C

Row | SMILES | melting point
25 | CN(C)S(=O)(=O)c1ccc2[nH]c(=O)oc2c1 | 202 to 204 °C
26 | Cc1nn(-c2ccccc2)c(C)c1C(O)C(F)(F)F (stereo unspecified) | 162 to 164 °C
27 | CC(C)CC(N)c1nnn[nH]1 (stereo unspecified) | 272 to 274 °C
28 | CCn1nc(C)c(C(=O)O)c1C(F)F | 134 to 136 °C
29 | COc1ccc2c(c1)C(=O)CCN2 | 114 to 116 °C
30 | COc1ccc(C2C(C(=O)O)CC(=O)N2C2CC2)cc1 (stereo unspecified) | 187 to 189 °C
31 | O=C(CCl)NCc1cccc(F)c1 | 53 to 55 °C
32 | COc1ccc([N+](=O)[O-])cc1C(C)N (stereo unspecified) | 62 to 64 °C
33 | N#CCc1ccc(NC2CCCCC2)cc1 | 57 to 59 °C
34 | COc1cc(C=C2CCCc3c2nc2ccccc2c3C(=O)O)cc(OC)c1OC | 249 to 251 °C
35 | COc1ccccc1C(N)=NO | 105 to 107 °C
36 | CCc1nc2sccc2c(=O)n1N | 132 to 134 °C
37 | COc1ccc(C(=O)NC(=O)CCl)cc1 | 160 to 162 °C
38 | O=C(O)c1sc(-c2ccccc2)cc1OCc1ccccc1 | 178 to 180 °C
39 | NS(=O)(=O)CCCC(=O)O | 108 to 111 °C
40 | Nc1cc(-c2cc(F)cc(F)c2)no1 | 114 to 116 °C
41 | O=C(O)COc1ccc(F)c(Cl)c1 | 106 to 108 °C
42 | CC(=O)c1c(C)nn(CCS(C)(=O)=O)c1C | 139 to 141 °C
43 | CC(C)(C)OC(=O)Nc1ccc(C=O)cn1 | 169 to 171 °C
44 | NC1(C(F)(F)F)CCC(O)CC1 (stereo unspecified) | 98 to 100 °C
45 | COCC1(C)CNC(=O)C1 (stereo unspecified) | 62 to 64 °C
46 | O=C(O)c1cc(Cl)ccc1-n1cnnn1 | 198 to 200 °C
47 | CCOC(=O)c1oc2ccc(Br)cc2c1CBr | 132 to 134 °C
48 | Nc1ccc2nc(N)ccc2c1 | 213 to 215 °C

Row | SMILES | melting point
49 | O=[N+]([O-])c1ccc2nc(Br)sc2c1 | 201 to 203 °C
50 | CN1CCC(Nc2ccc3cn[nH]c3c2)CC1 | 165 to 167 °C
51 | NC(=S)COCc1ccccc1 | 43 to 45 °C
52 | CC(O)Cc1nc2ccccc2s1 (stereo unspecified) | 84 to 86 °C
53 | OC(CN1CCCC1)C(F)(F)F (stereo unspecified) | 78 to 80 °C
54 | Cc1nc(COc2ccc(C=O)cc2)cs1 | 46 to 48 °C
55 | O=C(O)Cn1c(=O)[nH]c2ccccc2c1=O | 295 to 297 °C
56 | Cc1cccn2cc(COc3ccc(F)cc3Cl)nc12 | 128 to 130 °C
57 | CC(C)(C)NS(=O)(=O)c1ccc(Cl)c([N+](=O)[O-])c1 | 88 to 90 °C
58 | Cc1ccc(-c2nnc(N)[nH]2)c(C)c1 | 211 to 213 °C
59 | Nc1ccccc1CN1CCC(CO)CC1 | 79 to 81 °C
60 | CN(C)C(=O)CN1CCNCC1 | 35 to 37 °C
61 | N=c1[nH]cc(S(=O)(=O)O)cc1[N+](=O)[O-] | 317 to 319 °C
62 | COc1ccc2ocnc2c1 | 75 to 77 °C
63 | C#CCNC(=O)Nc1cccc(C#N)c1 | 167 to 169 °C
64 | NC(=S)C1(NC(=O)c2ccccc2)CCCCC1 | 189 to 191 °C
65 | O=Cc1ccc(-c2ccc([N+](=O)[O-])cc2Cl)o1 | 136 to 138 °C
66 | CCc1ccc(N)c(C(=O)OC)c1 | 83 to 85 °C
67 | O=Cc1sc(N2CCOCC2)nc1-c1ccccc1 | 181 to 183 °C
68 | Cc1cccc2c1CCC2=O | 94 to 96 °C
69 | O=C(O)c1cccn(Cc2ccccc2)c1=O | 129 to 131 °C
70 | O=C1NC(=O)N(c2ccccc2)C1=O | 213 to 215 °C
71 | Cn1ccnc1C(N)c1ccc(Cl)cc1 (stereo unspecified) | 45 to 49 °C
